# US9155693B2, “Solubilized magnolol analogs” (Colgate-Palmolive Company, priority 2011, dated 2015)
# Legend:
# [1] = format: physicochemical
# Source text: The PPG-1-PEG-9 lauryl glycol ether is capable of solubilizing up to 100 g per liter of neat propyl magnolol or isopropyl magnolol or up to 50 g per liter of butyl magnolol or isobutyl magnolol. In certain embodiments, the amount of PPG-1-PEG-9 lauryl glycol ether is at least 10 times the weight of the propyl magnolol or isopropyl magnolol in the composition. In certain embodiments, the amount of PPG-1-PEG-9 lauryl glycol ether is at least 20 times the weight of butyl or isobutyl magnolol in the composition.
# PPG-1-PEG-9 lauryl glycol ether is available as Eumulgin™ L from Cognis Corporation.
# [2] = Solubility of magnolol analogs in the combination of PPG-1-PEG-9 lauryl glycol ether, coceth-7 and PEG-40 hydrogenated castor oil (Eumulgin HPS); format: physicochemical; conditions: PPG-1-PEG-9 lauryl glycol ether in combination with coceth-7 and PEG-40 hydrogenated castor oil (Eumulgin HPS)
# Source text: The PPG-1-PEG-9 lauryl glycol ether can also be included in combination with coceth-7 and PEG-40 hydrogenated castor oil. This combination is available as Eumulgin™ HPS from Cognis Corporation. When this combination is used, the solubility stays the same except for butyl magnolol. This combination solubilizes up to 100 g per liter of butyl magnolol as compared to up to 50 g per liter for PPG-1-PEG-9 lauryl glycol ether alone. In certain embodiments, the amount of this combination is at least 10 times the weight of butyl magnolol.
amount solubilized by PPG-1-PEG-9 lauryl glycol ether [1],Compound,amount solubilized by the combination [2]
up to 100 g per liter,"CC(C)c1ccc(O)c(-c2cc(C(C)C)ccc2O)c1 [isopropyl magnolol, 5,5′-di-isopropylbiphenyl-2,2′-diol]",
up to 50 g per liter,"CC(C)Cc1ccc(O)c(-c2cc(CC(C)C)ccc2O)c1 [isobutyl magnolol, 5,5′-di-isobutylbiphenyl-2,2′-diol]",
up to 100 g per liter,"CCCc1ccc(O)c(-c2cc(CCC)ccc2O)c1 [propyl magnolol, 5,5′-di-n-propylbiphenyl-2,2′-diol]",

Compound,amount solubilized by PPG-1-PEG-9 lauryl glycol ether [1],amount solubilized by the combination [2]
"CCCCc1ccc(O)c(-c2cc(CCCC)ccc2O)c1 [butyl magnolol, 5,5′-di-n-butylbiphenyl-2,2′-diol]",up to 50 g per liter,up to 100 g per liter
